“Also recorded” adds a separate entry of the source. Where two headings read alike, the source gives them in different places.

In data set [1] the test system is iron hydrogenase from C. reinhardtii. Description: Biochemical data of purified iron hydrogenase, hydrogen evolution assay with reduced methyl viologen. Also noted: species or system Chlamydomonas reinhardtii. Here is the method: Hydrogenase activity of C. reinhardtii was determined in vitro with reduced methyl viologen using a gas chromatograph (Hewlett Packard 5890 Å Series II, column: molecular Sieve 5 Å, Mesh 60/80). The assay, containing in a final volume of 2 mL Pipes pH 6.8 (20 mM), Na2S2O4 (20 mM), MV (5 mM), was incubated anaerobically at 25° C. for 20 min. One unit is defined as he amount of hydrogenase evolving 1 μmol H2 per minute.
Cells from a 40-L culture of C. reinhardtii were harvested by ultra filtration through an Amicon Ultrafiltration System DC 10 LA, with a hollow-fiber filter. The pellet was resuspended in 200 mL TAP medium. After anaerobic adaptation by flushing the solution with argon for 1 h in the dark, all steps were performed under strictly anaerobic conditions. The isolated Fe-hyrogenase was chemically cleaved by cyanogen brormide (CNBr). After separation of he CNBr fragments on an SDS polyacrylamide gel, four peptides were blotted onto a poly(vinylidene difluoride) membrane and were sequenced. Automated Edman degradation was performed with an Applied Biosystem model 477 A sequencer with online analysator model 120 A.
To verify that the hydA ORF encodes the Fe-hydrogenase of C. reinhardtii, the enzyme was purified according to Happe and Naber (Eur. J. Biochem. 214,475-481 (1993)). The purified protein was able to evolve hydrogen, when incubated with reduced methyl viologen. After proteolytic digestion with cyanogen bromide, four bands of 4, 8, 9 and 11 kDa were detected after SDSIPAGE separation (data not shown). Two fragments (9 and 11 kDa) were sequenced by Edman degradation. […] The two fragment sequences are identical with he deduced amino-acid sequence of hydA (sequences are shadowed in gray in FIG. 6). The fragment corresponding to the cDNA region between 158 and 1636 bp of hydA was NdeI-BamHI cloned into the expression vector pET9a. The heterologous expressed protein was detected using antibodies raised against the Fe-hydrogenase. Both the purified Fe-hydrogenase of C. reinhardtii and the overexpressed enzyme had the same size (47.5 kDa). […] (ibid) who also detected no H2-production of the recombinant expressed Fe-hydrogenase from Desulfovibrio vulgaris in E. coli cells. An explanation might be the inability of E. coli to assemble the unique active site of the Fe-hydrogenases. It is known that E. coli has only three NiFe-hydrogenases with a different maturation system for the catalytic center.

Data set [2] has as its system iron hydrogenase from S. obliquus. Described as above. Further details: species or system Scenedesmus obliquus. As for the experimental part: (§1) The in vitro hydrogenase activity was measured by using a Hewlett Packard (HP 5890, Series II) gas chromatograph, equipped with a thermal conductivity detector and a molecular sieve column. Methyl viologen reduced by sodium dithionite was used as an electron donor. 1 unit is defined as the amount of hydrogenase evolving 1 mmol of molecular hydrogen (H2) per minute at 25° C.
40-liter cultures of Scenedesmus obliquus were grown heterotrophically. After centrifugation (10 min, 5000×g) the pellet we re-suspended in 200 ml TAP medium. The cells were anaerobically adapted by flushing the solution with argon for 1 hour in the dark. All further purification steps were performed in an anaerobic chamber (Coylab, Ann Arbor, Mich., USA). The cells were disrupted in a 50 mM Tris/HCl, buffer pH 8.0, 10 mM sodium dithionite by vortexing 3 min with glass beads. The further purification steps were made as described hereinbelow for the isolation of the Fe-hydrogenase of Chlamydomonas reinhardti. Automated Edman degradation of the N-terminal site of the protein was performed with an Applied Biosystem model 477A sequencer with online analysator model 120 A.
The N-terminal sequence of HydA was determined by Edman degradation.

Another data set relates to hydrogenase activity. Description: In vivo hydrogenase activity (H2 evolution) of anaerobically adapted cells in the presence of inhibitors of the photosynthetic electron flow. In kind it is cell-based, Scenedesmus obliquus. The settings on record: for Effect on H2 photoproduction / hydrogenase activity (in words): S. obliquus cells after anaerobic adaptation. As for the experimental part: (§2) The in vivo activity in the presence of different inhibitors of the photosynthetic electron flow was determined as described by Happe et al., in: European Journal of Biochemistry, 214, 475-481 (1993). After anaerobic adaptation, algal cells were harvested, diluted in fresh Tris acetate phosphate medium, and transferred to sealed tubes. Inhibitors were added 1 hour before H2 evolving activity was measured. Cells were broken by sonification. […] Ferrodoxin of both C. reinhardtii and S. obliquus was isolated according to the method of Schmitter et al. (Eur. J.l of Biochem., 172, pages 405-412 (1988)).
Hydrogenase activity was determined in intact and broken cells after anaerobic adaptation. […] This rate corresponds to 85% of the oxygen evolution measure with intact Scenedesmus cells.
In S. obliquus, the hydrogen evolution is linked to the photosynthetic electron transport chain through PSI. […] With reference to Table II, after anaerobic adaptation, cells were harvested, diluted in fresh, TAP medium, and incubated with inhibitors as described herein. α-PetF-antibody was raised against spinach ferredoxin. In Table II, DCMU=3-(3,4-dichlorophenyl)-1,1-dimethylurea; DBMIB=2,5-dibromo-3-methyl-6 isopropyl-p-benzochinone; Sulfo-DSPD=sulfodisalicylidinepropanediamin; DCPIP=2,6-dichlorophenolindophenol. The electron transport from PSI to ferredoxin was inhibited using the artificial electron acceptor DCPIP. In this reaction, DCPIP is reduced instead of ferredoxin and electron transfer to hydrogenase is interrupted.

The next data set deals with H2-evolution. Particulars: C. reinhardtii, stated as known; cited from earlier work.
Data set [3] relates to purified S. obliquus hydrogenase. Description: Electron transfer properties of electron donors measured in vitro with dithionite as reducing reagent. The data set is classed as biochemical, Scenedesmus obliquus. The settings on record: for H2-evolving activities: ferredoxin as electron donor, dithionite as reducing reagent. Here is the method:
as §1, §2
The electron transfer properties of different plant-type ferredoxins were measured in vitro with dithionite as a reducing reagent. […] In this assay, H2-evolving activities of 420, 390 and 350 U/mg protein with S. obliquus, C. reinhardtii and spinach ferredoxin, respectively, were observed. […] In D. desulfuricans, the Fe-hydrogenase has been reported to catalyze both hydrogen production and uptake with low potential multiheme cytochromes such as cytochrome c3.

The nature of data set [4]: Hydrogenase activity of lysate of induced E. coli cells expressing S. obliquus hydA. The data set is classed as cell-based, Escherichia coli.
Data set [5] is described as follows: Hydrogenase activity of lysate of induced E. coli cells expressing C. reinhardtii hydA. The data set is classed as cell-based, Escherichia coli. The settings on record: lysate of the induced E. coli cells. Here is the method: The hydA gene, corresponding to amino acids 57-497, was amplified, confirmed by sequences analysis and cloned into corresponding sites of he pET9a expression vector (Promega). The constructed plasmid was then ransformed into E. coli strain BL21(DE3). After induction with 1 mM isopropyl-thio-β-D-galactoside, the cells were resuspended in lysis buffer. Crude extracts from C. reinhardtii were isolated by harvesting cells after indicated anaerobic adaptation times. The pellet was resuspended in solubilization buffer and incubated with vigorous vortexing at RT for 30 min. The protein extracts from C. reinhardtii and E. coli were separated by 12% SDS/PAGE and blotted onto a poly(vinylidenedifluoride) membrane. Affinity-purified antibodies were diluted 1:200 and used for Western blot analyses.
To verify that the hydA ORF encodes the Fe-hydrogenase of C. reinhardtii, the enzyme was purified according to Happe and Naber (Eur. J. Biochem. 214,475-481 (1993)). […] After proteolytic digestion with cyanogen bromide, four bands of 4, 8, 9 and 11 kDa were detected after SDSIPAGE separation (data not shown). […] The heterologous expressed protein was detected using antibodies raised against the Fe-hydrogenase. […] (ibid) who also detected no H2-production of the recombinant expressed Fe-hydrogenase from Desulfovibrio vulgaris in E. coli cells. […]

Setting [6] is: broken cells, inhibitor 10^−5 M.
The mark [7] stands for this setting: intact cells, inhibitor 10^−5 M, added 1 hour before measurement.
[8] abbreviates: broken cells, inhibitor 10^−4 M.
Setting [9] is: methyl viologen, read-out: KM value (MV).

`[C-]#[O+]` [CO]: the “Inhibition of the enzyme (in words)” value in data set [1] and in data set [2] was “strongly inhibited” throughout.
On to `CC1=C(Br)C(=O)C(C(C)C)=C(Br)C1=O` [DBMIB, 2,5-dibromo-3-methyl-6 isopropyl-p-benzochinone], for which the “Effect on H2 photoproduction / hydrogenase activity (in words)” value in the data set with hydrogenase activity is “inhibition of the H2-production”. In addition, the Hydrogenase activity came to 0.006 Units/mg chlorophyll with hydrogenase activity (setting [6]) and 0.005 Units/mg chlorophyll with hydrogenase activity (setting [7]). In addition, in the data set on H2-evolution, the “Effect on H2 photoproduction (in words)” value is “no H2-evolution”.
With `CN(C)C(=O)Nc1ccc(Cl)c(Cl)c1` [DCMU, 3-(3,4-dichlorophenyl)-1,1-dimethylurea], in the data set with hydrogenase activity, the “Effect on H2 photoproduction / hydrogenase activity (in words)” value is “still able to photoproduce hydrogen; also recorded: not influenced”. Besides, the figures for the Hydrogenase activity in the data set with hydrogenase activity (setting [6]) and in the data set with hydrogenase activity (setting [7]) were 0.11 Units/mg chlorophyll and 0.10 Units/mg chlorophyll, respectively. Moreover, the “Effect on H2 photoproduction (in words)” value in the data set with H2-evolution was “still able to photoproduce hydrogen”.
For the molecule `O=C1C(Cl)=CC(=Nc2ccc(O)cc2)C=C1Cl` [DCPIP, 2,6-dichlorophenolindophenol], the Hydrogenase activity in the data set with hydrogenase activity (setting [8]) is 0.003 Units/mg chlorophyll.
For the molecule `NC(=O)C1=CN([C@@H]2O[C@H](COP(=O)(O)OP(=O)(O)OC[C@H]3O[C@@H](n4cnc5c(N)ncnc54)[C@H](OP(=O)(O)O)[C@@H]3O)[C@@H](O)[C@H]2O)C=CC1` [NADPH, reference compound], the “Hydrogen production with other possible electron donors (in words)” value in data set [3] (in vitro, purified S. obliquus hydrogenase) is listed as “No hydrogen production”.
For the molecule `O=O` [O2], the “Inhibition of the enzyme (in words)” value in data set [1] was “strongly inhibited”; in data set [2] it was “strongly inhibited”; in data set [2] (listed as oxygen), “irreversibly inactivated”.
As to “C. reinhardtii ferredoxin: plant-type [2Fe-2S] ferredoxin isolated from C. reinhardtii”, in data set [3], the H2-evolving activities is recorded as 390 U/mg protein.
For “spinach ferredoxin: plant-type [2Fe-2S] ferredoxin of spinach”, the H2-evolving activities in data set [3] turned out to be 350 U/mg protein.
Turning to “sulfodisalicylidinepropanediamin [sulfo-DSPD]”, in the data set with hydrogenase activity, the “Effect on H2 photoproduction / hydrogenase activity (in words)” value is “specifically blocked”. The “Reduction of hydrogenase activity” value in the data set on hydrogenase activity (S. obliquus, Table II) is “up to 30 fold”. Further, the Hydrogenase activity in the data set on hydrogenase activity (setting [8]) is reported as 0.003 Units/mg chlorophyll.

B1: S. obliquus iron hydrogenase: monomeric iron hydrogenase (HydA) of 44.5 kDa from Scenedesmus obliquus, SEQ. ID. NO. 4; recombinant form expressed in E. coli (protein, listed as Scenedesmus obliquus)
chain: MPEWQPGGRYAVSVRPPVNRRAVVAAERRRLVVRAAGPTAECDCPPAPAPKAPHWQQTLDELAKPKEQRKVMIAQIAPAVRVAIAETMGLNPGDVTVGQMVTGLRMLGFDYVFDTLFGADLTIMEEGTELLHRLQDHLEQHPNKEEPLPMFTSCCPGWVAMVEKSNPELIPYLSSCKSPQMMLGAVIKNYFAAEAGAKPEDICNVSVMPCVRKQGEADREWFNTTGAGGANVDHVMTTAELGKIFVERGIKLNDLQETPFDNPVGEGSGGVLFGTTGGVMEAALRTVYEVVTQKPLDRIVFEDVRGLEGIKESTLHLTPGPTSPFKAFAGADGTGITLNIAVANGLGNAKKLIKQLAAGESKYDFIEVMACPGGCIGGGGQPRSADKQILQKRQAAMYDLDERAVIRRSHENPLIGALYEKFLGEPNGHKAHELLHTHYVAGGVPDEK
What is called Km is the concentration of substrate that gives half-maximal velocity. Consider B1, for which, in data set [4], the “Hydrogenase activity of lysate (in words)” value is reported as “no hydrogenase activity”. Also, the Michaelis-Menten constant (Km) in data set [2] (setting [9]) came out at 800 µM. In data set [2] (purified enzyme), the Specific activity came to 700 U/mg protein and the pI value worked out at 5.17.

B2: C. reinhardtii iron hydrogenase: Fe-hydrogenase HydA from Chlamydomonas reinhardtii, mature polypeptide of 441 amino acids, SEQ. ID. NO. 5 precursor (protein)
chain: AAPAAEAPLSHVQQALAELAKPKDDPTRKHVCVQVAPAVRVAIAETLGLAPGATTPKQLAEGLRRLGFDEVFDTLFGADLTIMEEGSELLHRLTEHLEAHPHSDEPLPMFTSCCPGWIAMLEKSYPDLIPYVSSCKSPQMMLAAMVKSYLAEKKGIAPKDMVMVSIMPCTRKQSEADRDWFCVDADPTLRQLDHVITTVELGNIFKERGINLAELPEGEWDNPMGVGSGAGVLFGTTGGVMEAALRTAYELFTGTPLPRLSLSEVRGMDGIKETNITMVPAPGSKFEELLKHRAAARAEAAAHGTPGPLAWDGGAGFTSEDGRGGITLRVAVANGLGNAKKLITKMQAGEAKYDFVEIMACPAGCVGGGGQPRSTDKAITQKRQAALYNLDEKSTLRRSHENPSIRELYDTYLGEPLGHKAHELLHTHYVAGGVEEKDEKK
As for B2, in data set [1] (ferredoxin, read-out: KM value (ferredoxin)), the Km was 35 µM. In addition, in data set [1] (setting [9]), the Michaelis-Menten constant (Km) is 830 µM. For the same molecule, in data set [1] (purified enzyme), the Specific activity is reported as 935 U/mg protein and the pI value worked out at 5.3. Moreover, in data set [5], the “Hydrogenase activity of lysate (in words)” value is given as “No hydrogenase activity”.

Values taken from patent US6858718B1, “Hydrogen production” (Melis Energy, priority 2001, dated 2005).
